The source of these data is publication PMC3994546 (Chemico-biological interactions, 2014).

Broadly, the Ki is a dissociation constant, usually derived from enzyme kinetics or from competition with a known ligand.

Assay [1] concerns the target T1, hSULT2A1 (Homo sapiens, UniProt Q06520).
T1 sequence (Q06520 1-285): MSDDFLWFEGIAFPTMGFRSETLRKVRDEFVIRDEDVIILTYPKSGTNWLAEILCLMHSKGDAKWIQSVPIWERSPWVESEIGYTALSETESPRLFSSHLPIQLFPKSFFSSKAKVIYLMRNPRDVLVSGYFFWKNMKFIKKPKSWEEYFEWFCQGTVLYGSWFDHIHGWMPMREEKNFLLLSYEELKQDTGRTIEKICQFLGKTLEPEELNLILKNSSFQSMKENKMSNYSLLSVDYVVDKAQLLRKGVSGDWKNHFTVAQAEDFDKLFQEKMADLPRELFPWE
The experiment in a line: Kinetics of inhibition of hSULT2A1-catalyzed sulfation of [3H]DHEA by OHPCBs. As to conditions: for type of inhibition with respect to DHEA (best-fit kinetic model): fixed PAPS, varied DHEA and inhibitor, model chosen by R2 and AICc; for β value of partial noncompetitive inhibition equation: signifies formation of DHEA-sulfate in the presence of the inhibitor. The format is biochemical.

For assay [2], the target named is T1, hSULT2A1. The experiment in a line: Ligand binding to free hSULT2A1 by ANS fluorescence displacement. As to conditions: for difference in the multiphasic binding pattern in the presence or absence of either DHEA or PAP: with or without DHEA or PAP.
For assay [3], the target named is T1, hSULT2A1. Particulars: cited from earlier work.
For a further assay, the target named is T2, hSULT2A1 E-PAP complex (Homo sapiens, UniProt Q06520).
T2 sequence (Q06520 1-285): T1 sequence (Q06520 1-285)
The experiment in a line: Ligand binding to the hSULT2A1-PAP complex by ANS fluorescence displacement.

Where two headings read alike, the source gives them in different places.

For the compound `Oc1ccc(-c2ccc(Cl)cc2)cc1O` [3’,4’-diOHPCB 3, 3’, 4’-dihydroxy-4-monochlorobiphenyl], the Ki at hSULT2A1 [1] was 32 ± 2.3 µM. In addition, the Kd on hSULT2A1 [2] was 1.17 ± 1.11 µM; on hSULT2A1 [2] (read-out: Kd2, binding to hSULT2A1 in the absence of substrates or products, free enzyme, two-site, nonspecific binding curve), 41.9 ± 74.8 µM.

Regarding `Oc1ccc(-c2cccc(Cl)c2Cl)cc1O` [3’,4’-diOHPCB 5, 3’, 4’- dihydroxy-2,3-dichlorobiphenyl], affinity at hSULT2A1 [1] was put at a Ki of 14 ± 0.8 µM.

Regarding `Oc1ccc(-c2ccc(Cl)cc2)c(Cl)c1` [4-OHPCB 8, 4-hydroxy-2, 4’-dichlorobiphenyl], the affinity on hSULT2A1 [1], expressed as Ki, was 5 ± 0.4 µM. For the same compound, the “substrate for hSULT2A1-catalyzed sulfation” value (“substrate” for short) at hSULT2A1 [3] is listed as “served as alternate substrates”.

In turn, `Oc1ccc(-c2cccc(Cl)c2)cc1Cl` [4-OHPCB 11, 4-hydroxy-3, 3’-dichlorobiphenyl] gave a Ki at hSULT2A1 [1] of 12 ± 0.9 µM. Besides, the “substrate” value on hSULT2A1 [3] is reported as “served as alternate substrates”.

`Oc1c(Cl)cc(-c2ccccc2)cc1Cl` [4-OHPCB 14, 4-hydroxy-3,5-dichlorobiphenyl] returned a Ki at hSULT2A1 [1] of 13.5 ± 1 µM. Moreover, the figures for the Kd on hSULT2A1 [2] and at hSULT2A1 E-PAP complex were 2.55 ± 0.63 µM and 2.21 ± 0.5 µM, respectively. Further, the “binding pattern to hSULT2A1 (ANS displacement)” value (from here on “binding pattern to hSULT2A1”) at hSULT2A1 [2] (free enzyme) was “classical single-site binding characteristics”. Further, the “substrate” value at hSULT2A1 [3] is reported as “served as alternate substrates”.

As for `Oc1c(Cl)cc(-c2ccccc2Cl)cc1Cl` [4-OHPCB 34, 4-hydroxy-2’, 3,5-trichlorobiphenyl], the Ki at hSULT2A1 [1] amounted to 0.8 ± 0.1 µM. Moreover, the figures for the Kd at hSULT2A1 [2] and at hSULT2A1 E-PAP complex were 2.07 ± 0.3 µM and 3.2 ± 0.31 µM, respectively. At hSULT2A1 [2] (free enzyme), the “binding pattern to hSULT2A1” value is “classical single-site binding characteristics”. Moreover, at hSULT2A1 [3], the “substrate” value is “served as alternate substrates”.

With `Oc1c(Cl)cc(-c2cccc(Cl)c2)cc1Cl` [4-OHPCB 36, 4-hydroxy-3, 3’, 5-trichlorobiphenyl], on hSULT2A1 [1], the affinity, expressed as Ki, was 3.4 ± 0.8 µM; the “α value of partial competitive inhibition equation” value was 4.2; the “type of inhibition with respect to DHEA (best-fit kinetic model)” value (from here on “type of inhibition with respect to DHEA”) was “partial competitive inhibition”. The compound also returned a Kd at hSULT2A1 [2] of 2.46 ± 0.43 µM. Moreover, the “substrate” value at hSULT2A1 [3] is given as “served as alternate substrates”.

At hSULT2A1 [1], `Oc1ccc(-c2ccc(Cl)cc2)cc1` [4’-OHPCB 3, 4’-hydroxy-4-monochlorobiphenyl] registered a Ki of 17 ± 1.5 µM. In addition, on hSULT2A1 [2], the Kd turned out to be 3.48 ± 1.03 µM.

On to `Oc1ccc(-c2ccccc2Cl)cc1Cl` [4’-OHPCB 6, 4’-hydroxy-2, 3’-dichlorobiphenyl], for which, on hSULT2A1 [1], the Ki was determined as 5.4 ± 0.2 µM and the “type of inhibition with respect to DHEA” value was “noncompetitive”.

Consider `Oc1ccc(-c2cc(Cl)ccc2Cl)cc1` [4’-OHPCB 9, 4’-hydroxy-2,5-dichlorobiphenyl], for which, at hSULT2A1 [1], the Ki was determined as 0.7 ± 0.1 µM, the “type of inhibition with respect to DHEA” value is “partial noncompetitive inhibition” and the “β value of partial noncompetitive inhibition equation” value came out at 0.11 ± 0.02. The “binding pattern to hSULT2A1” value at hSULT2A1 [2] (free enzyme) was “multiphasic binding”. At hSULT2A1 [2], the “difference in the multiphasic binding pattern in the presence or absence of either DHEA or PAP” value is “did not show significant differences”.

With `Oc1ccc(-c2ccc(Cl)c(Cl)c2)cc1` [4’-OHPCB 12, 4’-hydroxy-3,4-dichlorobiphenyl], the affinity on hSULT2A1 [1] corresponds to a Ki of 4 ± 0.3 µM.

Regarding `Oc1ccc(-c2ccc(Cl)cc2Cl)cc1Cl` [4’-OHPCB 25, 4’-hydroxy-2, 3’, 4-trichlorobiphenyl], at hSULT2A1 [1], the Ki worked out at 3 ± 0.6 µM, the “type of inhibition with respect to DHEA” value is “partial noncompetitive inhibition” and the “β value of partial noncompetitive inhibition equation” value was 0.19 ± 0.06. On hSULT2A1 [3], the “substrate” value was “served as alternate substrates”.

With `Oc1ccc(-c2ccc(Cl)c(Cl)c2)c(Cl)c1` [4’-OHPCB 33, 4’-hydroxy-2’, 3,4-trichlorobiphenyl], affinity at hSULT2A1 [1] was put at a Ki of 3 ± 0.2 µM. Also, the “binding pattern to hSULT2A1” value on hSULT2A1 [2] (free enzyme) was “multiphasic binding”. In addition, the “difference in the multiphasic binding pattern in the presence or absence of either DHEA or PAP” value at hSULT2A1 [2] was “did not show significant differences”. The “substrate” value on hSULT2A1 [3] is “served as alternate substrates”.

In the case of `Oc1c(Cl)cc(-c2ccc(Cl)cc2Cl)cc1Cl` [4’-OHPCB 68, 4’-hydroxy-2, 3’, 4, 5’-tetrachlorobiphenyl], at hSULT2A1 [1], the affinity, expressed as Ki, was 0.6 ± 0.1 µM; the “type of inhibition with respect to DHEA” value was “partial noncompetitive inhibition”; the “β value of partial noncompetitive inhibition equation” value turned out to be 0.23 ± 0.07. For the same compound, the Kd at hSULT2A1 [2] was determined as 2.26 ± 0.33 µM. In addition, the “substrate” value on hSULT2A1 [3] is reported as “served as alternate substrates”.

Take `Oc1ccc(Cl)cc1-c1ccc(Cl)c(Cl)c1` [6’-OHPCB 35, 6’-hydroxy-3, 3’-4 trichlorobiphenyl]: on hSULT2A1 [1] (read-out: Ki, inhibition of the sulfation of DHEA catalyzed by hSULT2A1, nonlinear regression fit to noncompetitive inhibition equation (4-OHPCB 36: competitive inhibition equation), 200 µM PAPS, pH 7.0, 37°C), the Ki came out at 9 ± 0.5 µM. Further, on hSULT2A1 [2] (free enzyme), the “binding pattern to hSULT2A1” value is “multiphasic behavior”.
